Experimental data from US8119662B2, “Crystalline compounds” (Generics [UK] Limited, priority 2005, dated 2012).
Where a name gives a salt, the structure may show the parent alone.

Assays:
[1] = Polymorphic stability following grinding and tablet punching; format: physicochemical
[2] = Compressibility for dosage form preparation (e.g. tablets); format: physicochemical

C[C@H](CSC(=O)c1ccccc1)C(=O)N1C[C@@H](Sc2ccccc2)C[C@H]1C(=O)O [(4S)-1-[(2S)-3-(benzoylthio)-2-methylpropionyl]-4-(phenylthio)-L-proline calcium salt]
stability (changes in polymorphic form) [1]: no changes in polymorphic form | compressibility [2]: excellent compressibility
